{
  "source": "patent US20130203805A1",
  "about": "“Methods for treating anemia using inhibitors of hypoxia-inducible factor (HIF) hydroxylase” (FIBROGEN, INC., priority 2001, published 2013)",
  "key": {"[1]": {"tested_on": "erythropoietin", "experiment": "Dose response in vivo: serum erythropoietin (Example 3)", "parameters": "species or system Sprague Dawley male rats", "conditions": "rats; oral gavage 350 mg/kg on two days or 100 mg/kg daily days 1 to 7; within 1 day of treatment; FIG. 4A", "procedure": "Twelve Sprague Dawley male rats (approx. 260 g) were obtained from Charles River Laboratories, Inc., and treated by oral gavage as follows: (1) Four rats were dosed daily for days 1 to 7 with 0.5% carboxymethyl cellulose (CMC; Sigma-Aldrich, St. Louis Mo.) (0 mg/kg), were not treated for days 8 to 14, and then were dosed daily for days 15 to 19 with 0.5% CMC (0 mg/kg); (2) four animals were treated on day 0 and day 3 with a total of 7 ml/kg/day of 5.0% compound C (50 mg/ml in 0.5% CMC) (350 mg/kg), were not treated days 8 to 14, and then were dosed daily for days 15 to 19 with 3% compound C: (30 mg/ml in 0.5% CMC) (60 mg/kg/day); and (3) four animals were treated daily for days 1 to 7 with a total volume of 4 ml/kg/day of 2.5% compound C (25 mg/ml in 0.5% CMC) (100 mg/kg), were not treated days 8 to 14, and then were dosed daily for days 15 to 19 with 3% compound C (60 mg/kg/day). Thus, groups (2) and (3) received a total of 700 mg compound/kg body weight over the first 7 days, no treatment from days 8 to 14, and then 60 mg/kg/day for another 5 days. Animals were monitored for change in body weight and signs of toxicity. Blood samples (2×0.5 ml) were collected on days 1, 3, 7, 10, 17 and 21 as follows. Animals were anesthetized with isoflurane and 0.5 ml of blood was collected from the tail vein of each animal into each of two MICROTAINER EDTA-2K tubes (Becton-Dickinson). […]"}, "[2]": {"tested_on": "erythropoietin gene expression", "experiment": "Erythropoietin gene expression in liver and kidney by quantitative PCR (Example 2, Experiment I)", "assay_type": "in vivo, Swiss Webster male mice", "conditions": "mice, 200 mg/kg/day oral gavage twice daily 2.5 days (5 doses), 4 h after final dose, FIG. 2A", "procedure": "Twelve Swiss Webster male mice (30-32 g) were obtained from Simonsen, Inc. (Gilroy Calif.), and treated by oral gavage two times per day for 2.5 days (5 doses) with a 4 ml/kg volume of either 0.5% carboxymethyl cellulose (CMC; Sigma-Aldrich, St. Louis Mo.) (0 mg/kg/day) or 2.5% Compound C (25 mg/ml in 0.5% CMC) (200 mg/kg/day). Four hours after the final dose, animals were anesthetized with isoflurane and two blood samples were collected from the abdominal vein. One blood sample was collected into a MICROTAINER serum separator tube (Becton-Dickinson, Franklin Lakes N.J.), and incubated at room temperature for 30 minutes, centrifuged at 8,000 rpm at 4° C. for 10 minutes. The serum fraction was then processed and analyzed for erythropoietin (EPO) expression using a QUANTIKINE immunoassay (R&D Systems) according to the manufacturer's instructions. […] Hematocrit was measured by drawing EDTA-blood into a 75 mm×1.1-12 mm I.D. capillary tube (Chase Scientific Glass, Inc., Rockwood Tenn.) to approximately ¾ length. […] Hematocrit was read against a reader card. […]\nRNA isolation was carried out using the following protocol. […] The RNA was eluted into 80 μL of water and quantitated with RIBOGREEN reagent (Molecular Probes, Eugene Oreg.). […] The absorbance at 260 and 280 nm was measured to determine RNA purity and concentration. […]\nThe relative level of 18S ribosomal RNA gene expression was measured as a control. […]"}, "[3]": {"tested_on": "erythropoietin", "experiment": "Erythropoietin production following bilateral nephrectomy: serum erythropoietin (Example 8)", "assay_type": "in vivo", "conditions": "rats, 100 or 150 mg/kg oral gavage at 2 and 20 hours post-surgery, blood at 24 hours, FIG. 7", "procedure": "The ability of a compound of the invention to induce endogenous erythropoietin production in the absence of functioning kidney was assayed using a procedure described by Jacobson et al, (1957, Nature 179:633-634.) Briefly, rats were anesthetized under isoflurane and a midline abdominal incision was made under sterile conditions. The kidney capsules were peeled off, the pedicles were ligated, and both kidneys were removed. The abdomen was then closed and the animal was allowed to recover.\nAnimals were treated by oral gavage at 2 and 20 hours post-surgery with either 0.5% carboxymethyl cellulose (CMC; Sigma-Aldrich, St. Louis Mo.) or with compound C at 100 or 150 mg/kg. Blood samples (0.6 ml) were collected at 24 hours as follows. Animals were anesthetized with isoflurane and blood was collected from the tail vein into a MICROTAINER EDTA-2K tube (Becton-Dickinson). Blood samples were processed for erythropoietin levels and hematocrit as described in Example 2. Complete Blood Count (CBC) analysis, including blood hemoglobin level, reticulocyte number, and hematocrit, was performed by IDEXX veterinary service (W. Sacramento, Calif.)."}},
  "data": [
    {"compound": "O=C(O)CNC(=O)c1nc(Cl)c2ccccc2c1O", "note": "[Compound C, [(1-chloro-4-hydroxy-isoquinoline-3-carbonyl)-amino]-acetic acid]", "values": [
      {"measurement": "serum erythropoietin level", "setting": "[1]", "value": "significantly increased"},
      {"measurement": "increase over background in EPO transcript level, kidney", "setting": "[2]; relative to untreated kidney", "value": "approximately 580 fold"},
      {"measurement": "increase over background in EPO transcript level, liver", "setting": "[2]; relative to untreated liver", "value": "approximately 32 fold"},
      {"measurement": "serum erythropoietin levels, sham-operated animals", "setting": "[3]", "value": "significantly increased"},
      {"measurement": "serum erythropoietin levels, bilaterally nephrectomized animals", "setting": "[3]; relative to untreated BN and sham controls", "value": "noticably increased"}
    ]}
  ]
}
